Each block holds one molecule with its values, some of them ahead of it.
Experiments:
[1] = target: Coagulation factor X (Homo sapiens, UniProt P00742); experiment: Inhibition of human factor 10a-mediated cleavage of synthetic substrate S-2222
[2] = target: Amine oxidase [flavin-containing] A (Rattus norvegicus, UniProt P21396); experiment: Inhibition of rat MAO-A at 10 uM
[3] = target: Amine oxidase [flavin-containing] B (Rattus norvegicus, UniProt P19643); experiment: Inhibition of rat MAO-B at 10 uM
[4] = target: T1, Voltage-gated L-type calcium channel (Rattus norvegicus, UniProt P22002+Q02485+P27732); experiment: Inhibition of rat DHP binding site of L-type calcium channel at 10 uM
[5] = target: T1, Voltage-gated L-type calcium channel; experiment: Inhibition of rat verapamil binding site of L-type calcium channel at 10 uM
[6] = target: Nuclear receptor subfamily 1 group I member 2 (Homo sapiens, UniProt O75469); experiment: Activity at PXR
Chain of Nuclear receptor subfamily 1 group I member 2 (O75469 whole entry): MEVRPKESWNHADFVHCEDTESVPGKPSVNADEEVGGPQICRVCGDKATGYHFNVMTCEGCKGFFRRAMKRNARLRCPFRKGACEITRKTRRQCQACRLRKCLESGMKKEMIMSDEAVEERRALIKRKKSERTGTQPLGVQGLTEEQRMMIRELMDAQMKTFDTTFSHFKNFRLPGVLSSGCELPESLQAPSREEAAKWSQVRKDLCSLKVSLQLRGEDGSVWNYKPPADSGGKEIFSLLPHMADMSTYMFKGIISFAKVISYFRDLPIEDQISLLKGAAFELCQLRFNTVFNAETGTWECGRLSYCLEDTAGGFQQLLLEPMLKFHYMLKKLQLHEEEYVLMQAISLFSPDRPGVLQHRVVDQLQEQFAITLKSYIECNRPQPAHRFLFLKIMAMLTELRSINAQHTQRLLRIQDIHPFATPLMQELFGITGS

[7] = target: T2, Cytochrome P450 2C19 (Homo sapiens, UniProt P33261); experiment: Inhibition of CYP2C19 in human TC5 cells; format: ADME, cell-based
T2 sequence (P33261 whole entry): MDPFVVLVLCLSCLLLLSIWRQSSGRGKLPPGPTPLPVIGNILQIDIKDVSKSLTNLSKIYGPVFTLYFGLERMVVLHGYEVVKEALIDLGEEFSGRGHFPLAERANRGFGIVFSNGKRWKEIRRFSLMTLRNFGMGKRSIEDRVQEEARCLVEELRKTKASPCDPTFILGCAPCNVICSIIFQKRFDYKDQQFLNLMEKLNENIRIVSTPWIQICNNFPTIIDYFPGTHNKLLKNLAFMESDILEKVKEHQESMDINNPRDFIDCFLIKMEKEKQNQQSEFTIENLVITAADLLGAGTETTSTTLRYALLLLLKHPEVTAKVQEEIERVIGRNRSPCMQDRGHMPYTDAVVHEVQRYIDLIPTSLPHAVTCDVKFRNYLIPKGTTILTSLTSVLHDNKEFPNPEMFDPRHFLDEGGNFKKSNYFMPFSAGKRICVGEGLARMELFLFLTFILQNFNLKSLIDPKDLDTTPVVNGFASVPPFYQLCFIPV

[8] = target: T3, Cytochrome P450 2D6 (Homo sapiens, UniProt P10635); experiment: Inhibition of CYP2D6 in human TC5 cells; format: ADME, cell-based
T3 sequence (P10635 whole entry): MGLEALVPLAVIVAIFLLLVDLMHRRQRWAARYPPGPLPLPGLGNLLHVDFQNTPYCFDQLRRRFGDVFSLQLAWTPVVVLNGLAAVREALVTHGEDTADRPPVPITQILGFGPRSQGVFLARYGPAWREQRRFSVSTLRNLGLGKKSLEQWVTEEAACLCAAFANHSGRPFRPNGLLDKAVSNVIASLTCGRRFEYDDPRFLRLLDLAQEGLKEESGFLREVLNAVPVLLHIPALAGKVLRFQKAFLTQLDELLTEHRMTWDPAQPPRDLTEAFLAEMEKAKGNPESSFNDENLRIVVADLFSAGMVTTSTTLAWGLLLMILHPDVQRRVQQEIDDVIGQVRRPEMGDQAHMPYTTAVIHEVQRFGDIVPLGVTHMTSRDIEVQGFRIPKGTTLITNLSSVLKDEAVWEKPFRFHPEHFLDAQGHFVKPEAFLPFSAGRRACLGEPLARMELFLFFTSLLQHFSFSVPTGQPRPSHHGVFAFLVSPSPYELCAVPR

[9] = target: Cytochrome P450 2C8 (Homo sapiens, UniProt P10632); experiment: Inhibition of CYP2C8; format: ADME
[10] = target: T2, Cytochrome P450 2C19; experiment: Inhibition of CYP2C19; format: ADME
[11] = target: T3, Cytochrome P450 2D6; experiment: Inhibition of CYP2D6; format: ADME
[12] = target: Cytochrome P450 2B6 (Homo sapiens, UniProt P20813); experiment: Inhibition of CYP2B6; format: ADME
[13] = target: T4, Cytochrome P450 2C9 (Homo sapiens, UniProt P11712); experiment: Inhibition of CYP2C9; format: ADME
T4 sequence (P11712 whole entry): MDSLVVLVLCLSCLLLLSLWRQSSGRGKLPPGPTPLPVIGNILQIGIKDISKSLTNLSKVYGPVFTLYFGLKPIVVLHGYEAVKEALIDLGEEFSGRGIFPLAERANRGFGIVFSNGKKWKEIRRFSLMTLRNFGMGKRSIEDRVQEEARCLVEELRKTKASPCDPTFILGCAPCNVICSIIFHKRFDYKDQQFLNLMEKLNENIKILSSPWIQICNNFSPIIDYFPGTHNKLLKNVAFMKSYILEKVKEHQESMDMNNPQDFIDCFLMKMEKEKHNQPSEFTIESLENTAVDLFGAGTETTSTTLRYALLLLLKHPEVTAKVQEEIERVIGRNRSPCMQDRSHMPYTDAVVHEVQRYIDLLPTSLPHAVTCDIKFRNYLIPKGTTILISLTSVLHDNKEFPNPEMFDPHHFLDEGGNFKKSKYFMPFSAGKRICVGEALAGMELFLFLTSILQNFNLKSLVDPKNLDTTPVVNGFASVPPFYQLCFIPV

[14] = target: T5, Cytochrome P450 3A4 (Homo sapiens, UniProt P08684); experiment: Inhibition of CYP3A4 using BZR as substrate; format: ADME
T5 sequence (P08684 whole entry): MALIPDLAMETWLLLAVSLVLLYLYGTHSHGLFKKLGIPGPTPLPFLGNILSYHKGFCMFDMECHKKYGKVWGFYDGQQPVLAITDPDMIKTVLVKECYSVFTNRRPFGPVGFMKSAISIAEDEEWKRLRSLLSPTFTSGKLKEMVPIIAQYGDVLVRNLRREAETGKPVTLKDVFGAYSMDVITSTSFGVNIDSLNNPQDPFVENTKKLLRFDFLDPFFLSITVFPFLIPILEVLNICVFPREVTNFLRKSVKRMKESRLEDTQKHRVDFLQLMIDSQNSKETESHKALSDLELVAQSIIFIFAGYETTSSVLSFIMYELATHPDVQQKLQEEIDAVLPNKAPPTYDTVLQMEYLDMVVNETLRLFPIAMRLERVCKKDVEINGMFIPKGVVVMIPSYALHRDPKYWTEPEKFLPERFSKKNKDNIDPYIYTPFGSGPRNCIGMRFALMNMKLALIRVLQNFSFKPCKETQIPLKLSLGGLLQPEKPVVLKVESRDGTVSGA

[15] = target: T4, Cytochrome P450 2C9; experiment: Inhibition of CYP2C9 in human TC5 cells; format: ADME, cell-based
[16] = target: Cytochrome P450 1A2 (Homo sapiens, UniProt P05177); experiment: Inhibition of CYP1A2; format: ADME
[17] = target: T5, Cytochrome P450 3A4; experiment: Inhibition of CYP3A4 using BFC as substrate; format: ADME
[18] = target: Prothrombin (Homo sapiens, UniProt P00734); experiment: Inhibition of thrombin
[19] = target: Vitamin K-dependent protein C (Homo sapiens, UniProt P04070); experiment: Inhibition of activated protein C
Chain of Vitamin K-dependent protein C (P04070 43-197 limits assumed): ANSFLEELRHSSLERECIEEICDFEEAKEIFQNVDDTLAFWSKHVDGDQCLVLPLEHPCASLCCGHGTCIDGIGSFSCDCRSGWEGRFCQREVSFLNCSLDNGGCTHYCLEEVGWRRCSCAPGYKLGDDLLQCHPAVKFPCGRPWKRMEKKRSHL
Chain of Vitamin K-dependent protein C (P04070 212-461 limits assumed): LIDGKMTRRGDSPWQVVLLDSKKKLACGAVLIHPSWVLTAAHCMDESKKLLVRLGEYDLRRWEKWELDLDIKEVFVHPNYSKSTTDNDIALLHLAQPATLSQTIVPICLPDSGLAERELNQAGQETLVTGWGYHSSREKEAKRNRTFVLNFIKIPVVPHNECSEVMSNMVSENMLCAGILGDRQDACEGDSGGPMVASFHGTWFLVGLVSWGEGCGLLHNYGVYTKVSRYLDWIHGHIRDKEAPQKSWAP

[20] = target: Urokinase-type plasminogen activator (Homo sapiens, UniProt P00749); experiment: Inhibition of u-PA
[21] = target: Plasminogen (Homo sapiens, UniProt P00747); experiment: Inhibition of plasmin
Chain of Plasminogen (P00747 97-580 limits assumed): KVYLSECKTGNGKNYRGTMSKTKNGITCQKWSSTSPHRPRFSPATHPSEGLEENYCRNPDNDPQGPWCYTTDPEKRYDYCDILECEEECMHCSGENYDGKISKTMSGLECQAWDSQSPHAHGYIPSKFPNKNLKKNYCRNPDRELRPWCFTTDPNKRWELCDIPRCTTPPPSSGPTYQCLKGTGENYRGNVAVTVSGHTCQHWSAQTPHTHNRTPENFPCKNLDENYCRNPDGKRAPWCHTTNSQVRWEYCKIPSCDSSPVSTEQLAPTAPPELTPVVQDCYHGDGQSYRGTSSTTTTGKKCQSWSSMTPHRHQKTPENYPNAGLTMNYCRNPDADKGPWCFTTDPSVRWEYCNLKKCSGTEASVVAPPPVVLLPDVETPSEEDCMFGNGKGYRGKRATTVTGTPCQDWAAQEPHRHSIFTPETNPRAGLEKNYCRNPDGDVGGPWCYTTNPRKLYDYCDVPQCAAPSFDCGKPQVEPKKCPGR
Chain of Plasminogen (P00747 581-810 limits assumed): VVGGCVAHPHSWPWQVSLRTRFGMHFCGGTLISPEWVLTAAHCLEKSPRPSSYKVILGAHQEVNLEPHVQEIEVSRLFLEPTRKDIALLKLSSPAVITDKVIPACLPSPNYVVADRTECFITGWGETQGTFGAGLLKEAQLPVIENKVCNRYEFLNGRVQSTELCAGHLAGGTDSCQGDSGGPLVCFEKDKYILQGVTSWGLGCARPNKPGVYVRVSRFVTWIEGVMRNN

[22] = target: Tissue-type plasminogen activator (Homo sapiens, UniProt P00750); experiment: Inhibition of t-PA
[23] = target: T5, Cytochrome P450 3A4; experiment: Inhibition of CYP3A4 in human TC5 cells; format: ADME, cell-based
[24] = test system: Rattus norvegicus; experiment: Total clearance in rat at 7 mg/kg, iv; format: ADME, organism-based; design: dose 7 mg/kg, route intravenous; conditions: in vivo
[25] = Volume of distribution at steady state in rat at 7 mg/kg, iv; format: ADME, organism-based; design: dose 7 mg/kg, route intravenous; conditions: in vivo, read-out: Vdss
[26] = Half life in rat at 7 mg/kg, iv; format: ADME, organism-based; design: dose 7 mg/kg, route intravenous; conditions: in vivo
[27] = Mean residence time in rat at 7 mg/kg, iv; format: ADME, organism-based; design: dose 7 mg/kg, route intravenous; conditions: in vivo
[28] = Oral Bioavailability in rat at 10 mg/kg; format: ADME, organism-based; conditions: in vivo
[29] = test system: Canis familiaris; experiment: Total clearance in dog at 8.3 mg/kg, iv; format: ADME, organism-based, Canis lupus familiaris; design: dose 8.3 mg/kg, route intravenous; conditions: in vivo
[30] = Volume of distribution at steady state in dog at 8.3 mg/kg, iv; format: ADME, organism-based, Canis lupus familiaris; design: dose 8.3 mg/kg, route intravenous; conditions: in vivo, read-out: Vdss
[31] = Half life in dog at 8.3 mg/kg, iv; format: ADME, organism-based, Canis lupus familiaris; design: dose 8.3 mg/kg, route intravenous; conditions: in vivo
[32] = Mean residence time in dog at 8.3 mg/kg, iv; format: ADME, organism-based, Canis lupus familiaris; design: dose 8.3 mg/kg, route intravenous; conditions: in vivo
[33] = Oral bioavailability in dog at 7 mg/kg; format: ADME, organism-based, Canis lupus familiaris; conditions: in vivo
[34] = test system: Rhesus monkey; experiment: Total clearance in monkey at 10 mg/kg, iv; format: ADME, organism-based, Macaca mulatta; design: dose 10 mg/kg, route intravenous; conditions: in vivo
[35] = Volume of distribution at steady state in monkey at 10 mg/kg, iv; format: ADME, organism-based, Macaca mulatta; design: dose 10 mg/kg, route intravenous; conditions: rhesus monkey, in vivo, read-out: Vdss
[36] = Half life in monkey at 10 mg/kg, iv; format: ADME, organism-based, Macaca mulatta; design: dose 10 mg/kg, route intravenous; conditions: rhesus monkey, in vivo
[37] = Mean residence time in monkey at 10 mg/kg, iv; format: ADME, organism-based, Macaca mulatta; design: dose 10 mg/kg, route intravenous; conditions: rhesus monkey, in vivo
[38] = Bioavailability in monkey at 10 mg/kg, po; format: ADME, organism-based, Macaca mulatta; conditions: rhesus monkey, in vivo
[39] = test system: Plasma

Chain of Coagulation factor X (P00742 41-179 limits assumed): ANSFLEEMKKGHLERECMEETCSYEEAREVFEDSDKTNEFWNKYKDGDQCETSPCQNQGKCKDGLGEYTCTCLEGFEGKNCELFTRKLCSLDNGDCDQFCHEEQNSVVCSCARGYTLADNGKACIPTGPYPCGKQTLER
Chain of Coagulation factor X (P00742 235-488 limits assumed): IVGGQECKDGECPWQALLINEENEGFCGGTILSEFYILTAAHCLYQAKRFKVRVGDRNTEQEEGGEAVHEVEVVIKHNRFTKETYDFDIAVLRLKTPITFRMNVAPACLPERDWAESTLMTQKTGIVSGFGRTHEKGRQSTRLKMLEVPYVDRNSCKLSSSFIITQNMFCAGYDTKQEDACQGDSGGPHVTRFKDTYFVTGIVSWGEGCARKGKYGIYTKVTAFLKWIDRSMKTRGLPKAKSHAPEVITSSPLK
Chain of Amine oxidase [flavin-containing] A (P21396 whole entry): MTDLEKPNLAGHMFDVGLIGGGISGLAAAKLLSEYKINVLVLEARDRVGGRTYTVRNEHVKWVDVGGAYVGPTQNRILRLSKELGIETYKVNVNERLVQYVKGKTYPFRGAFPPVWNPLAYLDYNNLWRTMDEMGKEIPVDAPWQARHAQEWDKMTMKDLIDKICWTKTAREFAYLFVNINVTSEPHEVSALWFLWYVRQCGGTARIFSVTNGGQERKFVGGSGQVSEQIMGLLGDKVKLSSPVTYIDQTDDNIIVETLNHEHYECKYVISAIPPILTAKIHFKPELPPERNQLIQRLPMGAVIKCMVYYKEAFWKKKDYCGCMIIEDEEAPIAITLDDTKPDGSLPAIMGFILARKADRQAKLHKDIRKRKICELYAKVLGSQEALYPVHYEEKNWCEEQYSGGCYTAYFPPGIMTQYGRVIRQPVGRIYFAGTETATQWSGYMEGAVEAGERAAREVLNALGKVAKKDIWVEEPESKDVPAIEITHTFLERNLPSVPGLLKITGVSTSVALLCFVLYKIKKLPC

IC50 [1]: 2.68 µM
Structure (SMILES): Cc1nc2cc(N/C(=N\C#N)N[C@H]3CCCCN(CC(=O)N4CCCC4)C3=O)ccc2o1

IC50 [1]: 2.73 µM
Structure (SMILES): Cc1cc2c(F)c(N/C(=N\C#N)N[C@H]3CCCCN(CC(=O)N4CCCC4)C3=O)ccc2o1

IC50 [1]: 0.076 µM
Structure (SMILES): Cc1cc2cc(N=C(NC#N)N[C@H]3CCCCN(CC(=O)N4CCCC4)C3=O)c(F)cc2o1

IC50 [1]: 11.9 µM
Structure (SMILES): Cc1nc2ccc(N=C(NC#N)N[C@H]3CCCCN(CC(=O)N4CCCC4)C3=O)cc2[nH]1

IC50 [1]: 2.88 µM
Structure (SMILES): Cc1cc2cc(N=C(NC#N)N[C@H]3CCCCN(CC(=O)N4CCCC4)C3=O)ccc2s1

IC50 [1]: > 34 µM
Structure (SMILES): Cc1cc2cc(N=C(NC#N)N[C@H]3CCCCN(CC(=O)N4CCCC4)C3=O)ccc2[nH]1

IC50 [1]: 14.8 µM
Structure (SMILES): COc1cc(N=C(NC#N)N[C@H]2CCCCN(CC(=O)N3CCCC3)C2=O)cc2cc(C)oc12

inhibition (INH) [2]: Not Active
inhibition (INH) [3]: Not Active
inhibition (INH) [4]: Not Active
inhibition (INH) [5]: Not Active
EC50 [6]: > 25 µM
IC50 [9]: > 40 µM
IC50 [10]: > 40 µM
IC50 [11]: > 40 µM
IC50 [12]: > 40 µM
IC50 [13]: 29.2 µM
IC50 [14]: > 40 µM
IC50 [16]: > 40 µM
IC50 [17]: 18.5 µM
Ki [18]: 6.6 µM
Ki [19]: > 18 µM
Ki [20]: > 7.8 µM
Ki [21]: > 16 µM
Ki [22]: 3.7 µM
clearance [24]: 1.7 mL/min/kg
Vd [25]: 0.19 L/kg
half-life [26]: 2.4 h
MRT [27]: 1.9 h
bioavailability [28]: 50%
clearance [29]: 0.12 mL/min/kg
Vd [30]: 0.11 L/kg
half-life [31]: 10.3 h
MRT [32]: 16 h
bioavailability [33]: 77%
clearance [34]: 2.2 mL/min/kg
Vd [35]: 1.8 L/kg
half-life [36]: 2.9 h
MRT [37]: 1.5 h
bioavailability [38]: 49%
Structure (SMILES): Cc1cc2cc(N=C(NC#N)N[C@H]3CCCCN(CC(=O)N4CCCC4)C3=O)ccc2o1
IC50 [7]: > 200 µM
IC50 [8]: > 200 µM
IC50 [15]: > 200 µM
IC50 [23]: > 200 µM

Structure (SMILES): Cc1cc2cc(N/C(=N\C#N)N[C@H]3CCCCN(CC(=O)N4CC5CC5C4)C3=O)ccc2o1 (stereo partly drawn)
IC50 [1]: 0.015 µM
EC [39]: 56 µM

IC50 [1]: 0.011 µM
Structure (SMILES): Cc1cc2cc(N/C(=N\C#N)N[C@H]3CCCCN(CC(=O)N4CCCC4)C3=O)cc(F)c2o1

IC50 [1]: 0.78 µM
Structure (SMILES): N#C/N=C(\Nc1ccc2ccccc2c1)N[C@H]1CCCCN(CC(=O)N2CCCC2)C1=O

IC50 [1]: 0.386 µM
Structure (SMILES): Cc1cc2cc(N/C(=N\C#N)N[C@H]3CCCCN(CC(=O)N4CCC[C@H]4CN)C3=O)ccc2o1

Structure (SMILES): Cc1cc2cc(N/C(=N\C#N)N[C@H]3CCCCN(CC(=O)N4CCCC4Cc4ccccc4)C3=O)ccc2o1 (stereo partly drawn)
IC50 [1]: 0.019 µM
EC [39]: >50 µM

IC50 [1]: 1.3 µM
Structure (SMILES): Cc1cc2ccc(N/C(=N\C#N)N[C@H]3CCCCN(CC(=O)N4CCCC4)C3=O)cc2[nH]1

IC50 [1]: 30 µM
Structure (SMILES): Cc1cc2cc(N=C(NC#N)N[C@@H]3CCN(CC(=O)N4CCCC4)C3=O)ccc2o1

Structure (SMILES): CC(=O)NC[C@H]1CCCN1C(=O)CN1CCCC[C@H](N/C(=N\C#N)Nc2ccc3oc(C)cc3c2)C1=O
IC50 [1]: 0.028 µM
EC [39]: 33 µM

IC50 [1]: 0.084 µM
Structure (SMILES): N#C/N=C(\Nc1ccc2occc2c1)N[C@H]1CCCCN(CC(=O)N2CCCC2)C1=O

IC50 [1]: 2.6 µM
Structure (SMILES): N#C/N=C(\Nc1ccc2oc(C#N)cc2c1)N[C@H]1CCCCN(CC(=O)N2CCCC2)C1=O

Structure (SMILES): Cc1cc2cc(N/C(=N\C#N)N[C@H]3CCCCN(CC(=O)N4C5CCC4CNC5)C3=O)ccc2o1
IC50 [1]: 0.005 µM
EC [39]: 11.5 µM

Structure (SMILES): CC(=O)NC[C@@H]1CCCN1C(=O)CN1CCCC[C@H](N/C(=N\C#N)Nc2ccc3oc(C)cc3c2)C1=O
IC50 [1]: 0.054 µM
EC [39]: >50 µM

IC50 [1]: 0.195 µM
Structure (SMILES): Cc1cc2cc(N=C(NC#N)NC3CCCCCN(CC(=O)N4CCCC4)C3=O)ccc2o1 (racemic)

IC50 [1]: 0.027 µM
Structure (SMILES): Cc1cc2cc(N/C(=N\C#N)N[C@H]3CCCCN(CC(=O)N4CCCC4)C3=O)cc(Cl)c2o1

IC50 [1]: > 34 µM
Structure (SMILES): Cc1cn2cc(N/C(=N\C#N)N[C@H]3CCCCN(CC(=O)N4CCCC4)C3=O)ccc2n1

Structure (SMILES): Cc1cc2cc(N/C(=N\C#N)N[C@H]3CCCCN(CC(=O)N4CCC(Cc5ccccc5)C4)C3=O)ccc2o1 (stereo partly drawn)
IC50 [1]: 0.053 µM
EC [39]: >50 µM

IC50 [1]: 2.94 µM
Structure (SMILES): Cc1coc2ccc(N=C(NC#N)N[C@H]3CCCCN(CC(=O)N4CCCC4)C3=O)cc12

IC50 [1]: 18.8 µM
Structure (SMILES): Cc1nc2ccc(N/C(=N\C#N)N[C@H]3CCCCN(CC(=O)N4CCCC4)C3=O)cc2o1

IC50 [1]: > 32 µM
Structure (SMILES): Cc1cc2cc(N/C(=N\C#N)N[C@H]3CCN(CC(=O)N4CCCC4)C3=O)ccc2o1

Structure (SMILES): Cc1cc2cc(N/C(=N\C#N)N[C@H]3CCCCN(CC(=O)N4CCC[C@@H]4CN)C3=O)ccc2o1
IC50 [1]: 0.022 µM
EC [39]: 27 µM

IC50 [1]: 0.021 µM
Structure (SMILES): Cc1cc2cc(N=C(NC#N)N[C@H]3CCCCN(CC(=O)N4CCCC4)C3=O)cc(C)c2o1

IC50 [1]: 0.349 µM
Structure (SMILES): Cc1oc2ccc(N=C(NC#N)N[C@H]3CCCCN(CC(=O)N4CCCC4)C3=O)cc2c1C

IC50 [1]: 0.928 µM
Structure (SMILES): Cc1cc2cc(N/C(=N\C#N)N[C@H]3CCCN(CC(=O)N4CCCC4)C3=O)ccc2o1

IC50 [1]: 2.4 µM
Structure (SMILES): Cn1cc2cc(N/C(=N\C#N)N[C@H]3CCCCN(CC(=O)N4CCCC4)C3=O)ccc2n1

IC50 [1]: > 34 µM
Structure (SMILES): Cc1cc2ccc(N/C(=N\C#N)N[C@H]3CCCCN(CC(=O)N4CCCC4)C3=O)cc2o1

IC50 [1]: 0.167 µM
Structure (SMILES): Cc1cc2cc(N/C(=N\C#N)N[C@H]3CCCCN(CC(=O)N4CCCC4)C3=O)cc(C(F)(F)F)c2o1

IC50 [1]: 15.5 µM
Structure (SMILES): CCc1cc2cc(N=C(NC#N)N[C@H]3CCCCN(CC(=O)N4CCCC4)C3=O)ccc2o1

Reference: ChEMBL document CHEMBL1152385, “Cyanoguanidine-based lactam derivatives as a novel class of orally bioavailable factor Xa inhibitors” (Bioorg Med Chem Lett, 2009)
